Laboratory results reported in patent US4066772A, “1,3-Dihydro-1-[3-(1-piperidinyl)propyl]-2H-benzimidazol-2-ones and related compounds” (Janssen Pharmaceutica N.V., priority 1976, dated 1978).

These compounds were tested on apomorphine-induced vomiting in dogs (assay: Apomorphine-induced vomiting test in dogs (antiemetic activity, subcutaneous)). Conditions: Canis lupus familiaris, sc, 1 h, read-out: ED50 (dose which protects 50% of the animals from emesis), Table I.
Type: in vivo, beagle dogs
CN1CN(c2ccccc2)C2(CCN(CCCn3c(=O)[nH]c4ccccc43)CC2)C1=O [L=H, R1=H, R4=CH3, R5=H, 8-[3-(1,3-dihydro-2-oxo-2H-benzimidazol-1-yl)propyl]-3-methyl-1-phenyl-1,3,8-triazaspiro[4,5]decan-4-one] was tested, and the ED50 was 0.015 mg/kg. Cc1ccc2c(c1)[nH]c(=O)n2CCCN1CCC2(CC1)C(=O)NCN2c1ccccc1 [L=H, R1=5-CH3, R4=H, R5=H, 8-[3-(1,3-dihydro-5-methyl-2-oxo-2H-benzimidazol-1-yl)propyl]-1-phenyl-1,3,8-triazaspiro[4,5]decan-4-one] gave an ED50 of 0.06 mg/kg. O=C1NCN(c2ccccc2)C12CCN(CCCn1c(=O)[nH]c3ccccc31)CC2 [L=H, R1=H, R4=H, R5=H, 8-[3-(1,3-dihydro-2-oxo-2H-benzimidazol-1-yl)propyl]-1-phenyl-1,3,8-triazaspiro[4,5]decan-4-one] was tested, and the ED50 was 0.03 mg/kg. Work on O=C1NCN(c2ccc(F)cc2)C12CCN(CCCn1c(=O)[nH]c3cc(Cl)ccc31)CC2 [L=H, R1=5-Cl, R4=H, R5=4-F, 8-[3-(5-chloro-1,3-dihydro-2-oxo-2H-benzimidazol-1-yl)propyl]-1-(4-fluorophenyl)-1,3,8-triazaspiro[4,5]decan-4-one] yielded an ED50 of 0.015 mg/kg. Work on C=CCn1c(=O)n(CCCN2CCC3(CC2)C(=O)NCN3c2ccccc2)c2ccccc21 [L=CH2CHCH2, R1=H, R4=H, R5=H, 8-{3-[1,3-dihydro-2-oxo-3-(2-propenyl)-2H-benzimidazol-1-yl]propyl}-1-phenyl-1,3,8-triazaspiro[4,5]decan-4-one] yielded an ED50 of 0.25 mg/kg. O=C1NCN(c2cccc(C(F)(F)F)c2)C12CCN(CCCn1c(=O)[nH]c3ccccc31)CC2 [L=H, R1=H, R4=H, R5=3-CF3, 8-[3-(2,3-dihydro-2-oxo-1H-benzimidazol-1-yl)propyl]-1-[3-(trifluoromethyl)phenyl]-1,3,8-triazaspiro[4,5]decan-4-one] gave an ED50 of 0.025 mg/kg. For O=C1NCN(c2ccc(F)cc2)C12CCN(CCCn1c(=O)[nH]c3ccccc31)CC2 [L=H, R1=H, R4=H, R5=4-F], the ED50 was 0.04 mg/kg. O=C1NCN(c2ccccc2)C12CCN(CCCn1c(=O)[nH]c3cc(Cl)ccc31)CC2 [L=H, R1=5-Cl, R4=H, R5=H, 8-[3-(5-chloro-1,3-dihydro-2-oxo-2H-benzimidazol-1-yl)propyl]-1-phenyl-1,3,8-triazaspiro[4,5]decan-4-one] gave an ED50 of 0.05 mg/kg. Work on Cn1c(=O)n(CCCN2CCC3(CC2)C(=O)NCN3c2ccccc2)c2ccccc21 [L=CH3, R1=H, R4=H, R5=H, 8-[3-(1,3-dihydro-3-methyl-2-oxo-2H-benzimidazol-1-yl)propyl]-1-phenyl-1,3,8-triazaspiro[4,5]-decan-4-one] yielded an ED50 of 0.08 mg/kg.

Same assay, conditions: Canis lupus familiaris, sc, 1 h, read-out: ED50 (dose which protects 50% of the animals from emesis), Table II
In the case of O=c1[nH]c2ccccc2n1CCCN1CCC(n2c(=O)[nH]c3cc(Cl)ccc32)CC1 [5-chloro-1-{1-[3-(1,3-dihydro-2-oxo-2H-benzimidazol-1-yl)propyl]-4-piperidinyl}-1,3-dihydro-2H-benzimidazol-2-one], the ED50 was 0.01 mg/kg.

Same assay, conditions: Canis lupus familiaris, sc, 1 h, read-out: ED50 (dose which protects 50% of the animals from emesis), Table III
In the case of O=c1[nH]c2ccccc2n1CCCN1CCC(O)(c2ccc(Cl)c(C(F)(F)F)c2)CC1 [L=H, R8=4-Cl, R9=3-CF3, 1-[3-{4-[4-chloro-3-(trifluoromethyl)phenyl]-4-hydroxy-1-piperidinyl}propyl]-1,3-dihydro-2H-benzimidazol-2-one], the ED50 was 0.015 mg/kg. For O=c1[nH]c2ccccc2n1CCCN1CCC(O)(c2ccc(Cl)cc2)CC1 [L=H, R8=4-Cl, R9=H, 1-{3-[4-(4-chlorophenyl)-4-hydroxy-1-piperidinyl]-propyl}-1,3-dihydro-2H-benzimidazol-2-one], the ED50 was 0.06 mg/kg. C=CCn1c(=O)n(CCCN2CCC(O)(c3ccc(Cl)cc3)CC2)c2ccccc21 [L=CH2CHCH2, R8=4-Cl, R9=H, 1-{3-[4-(4-chlorophenyl) 4-hydroxy-1-piperidinyl]propyl}-1,3-dihydro-3-(2-propenyl)-2-H-benzimidazol-2-one] showed an ED50 of 0.5 mg/kg.

Same assay, conditions: Canis lupus familiaris, sc, 1 h, read-out: ED50 (dose which protects 50% of the animals from emesis), Table IV
Work on O=C1NCN(c2ccccc2)C12CCN(CCCn1cnc3ccccc31)CC2 yielded an ED50 of 0.25 mg/kg.

Same assay, conditions: Canis lupus familiaris, sc, beagle dogs, apomorphine 0.31 mg/kg s.c. 1 hour after compound; read-out: ED50 (dose which protects 50% of the animals from emesis), Table II
O=c1[nH]c2ccccc2n1CCCN1CC=C(n2c(=O)[nH]c3ccccc32)CC1 [L=H, R1=H, R2=H, R3=H, ring drawing 47, R7=H, 1-{3-[3,6-dihydro-4-(1,3-dihydro-2-oxo-2H-benzimidazol-1-yl)-1-(2H)-pyridinyl]propyl}-1,3-dihydro-2H-benzimidazol-2-one] showed an ED50 of 0.04 mg/kg.

Same assay, conditions: Canis lupus familiaris, sc, beagle dogs, apomorphine 0.31 mg/kg s.c. 1 hour after compound; read-out: ED50 (dose which protects 50% of the animals from emesis), Table IV
Work on O=c1[nH]c2ccccc2n1CCCN1CCC(n2c(=S)[nH]c3ccccc32)CC1 yielded an ED50 of 0.025 mg/kg. With O=c1[nH]c2ccccc2n1CCCN1CCC(n2c(=S)[nH]c3cc(Cl)ccc32)CC1 the ED50 was 0.004 mg/kg. O=c1[nH]c2cc(Cl)ccc2n1C1CCN(CCCn2c(=S)[nH]c3ccccc32)CC1 gave an ED50 of 0.004 mg/kg.
